Measurements from patent US9193722B2, “Tri-cyclic pyrazolopyridine kinase inhibitors” (Vertex Pharmaceuticals Incorporated, priority 2008, dated 2015).
pKi: −log10 of the molar value. Where two headings read alike, the source gives them in different places.

What was measured:
Type in all cases: biochemical
PKC theta kinase = PKC theta kinase (Homo sapiens, UniProt Q04759); experiment: PKC theta kinase inhibition, coupled-enzyme (NADH absorbance) assay, Ki; settings: 240 μM ATP, 18 nM PKC theta kinase, 30° C.
Description: An assay buffer solution was prepared which consisted of 100 mM HEPES (pH 7.5), 10 mM MgCl2, 25 mM NaCl, 0.1 mM EDTA and 0.01% Brij. […] To 60 μL of this enzyme buffer, in a 384 well plate, was added 2 μL of VRT stock solution in DMSO. The mixture was allowed to equilibrate for 10 mins at 30° C. […] Ki values were calculated from initial rate data by non-linear regression using the Prism software package (Prism 4.0a, Graphpad Software, San Diego, Calif.).

PKC delta kinase = PKC delta kinase (Homo sapiens, UniProt Q05655); experiment: PKC delta kinase inhibition, coupled-enzyme (NADH absorbance) assay, Ki; settings: 150 μM ATP, 46 nM PKC delta kinase, 30° C.
Description: (§1) An assay buffer solution was prepared which consisted of 100 mM HEPES (pH 7.5), 10 mM MgCl2, 25 mM NaCl, 0.1 mM EDTA and 0.01% Brij. […] To 16 μL of this enzyme buffer, in a 384 well plate, was added 1 μL of VRT stock solution in DMSO. The mixture was allowed to equilibrate for 10 mins at 30° C. The enzyme reaction was initiated by the addition of 16 μL stock ATP solution prepared in assay buffer to a final assay concentration of 150 μM. Initial rate data was determined from the rate of change of absorbance at 340 nm (corresponding to stoichiometric consumption of NADH) using a Molecular Devices Spectramax plate reader (Sunnyvale, Calif.) over 15 mins at 30° C. […] Ki values were calculated from initial rate data by non-linear regression using the Prism software package (Prism 4.0a, Graphpad Software, San Diego, Calif.).

PKC alpha kinase = PKC alpha kinase (Homo sapiens, UniProt P17252); experiment: PKC alpha kinase inhibition, coupled-enzyme (NADH absorbance) assay, Ki; settings: 130 μM ATP, 4.5 nM PKC alpha kinase, 30° C.
Description: as §1, with “EDTA, 100 μM CaCl2” for “EDTA”, “130” for “150”

Sequence of PKC theta kinase (Q04759 whole entry): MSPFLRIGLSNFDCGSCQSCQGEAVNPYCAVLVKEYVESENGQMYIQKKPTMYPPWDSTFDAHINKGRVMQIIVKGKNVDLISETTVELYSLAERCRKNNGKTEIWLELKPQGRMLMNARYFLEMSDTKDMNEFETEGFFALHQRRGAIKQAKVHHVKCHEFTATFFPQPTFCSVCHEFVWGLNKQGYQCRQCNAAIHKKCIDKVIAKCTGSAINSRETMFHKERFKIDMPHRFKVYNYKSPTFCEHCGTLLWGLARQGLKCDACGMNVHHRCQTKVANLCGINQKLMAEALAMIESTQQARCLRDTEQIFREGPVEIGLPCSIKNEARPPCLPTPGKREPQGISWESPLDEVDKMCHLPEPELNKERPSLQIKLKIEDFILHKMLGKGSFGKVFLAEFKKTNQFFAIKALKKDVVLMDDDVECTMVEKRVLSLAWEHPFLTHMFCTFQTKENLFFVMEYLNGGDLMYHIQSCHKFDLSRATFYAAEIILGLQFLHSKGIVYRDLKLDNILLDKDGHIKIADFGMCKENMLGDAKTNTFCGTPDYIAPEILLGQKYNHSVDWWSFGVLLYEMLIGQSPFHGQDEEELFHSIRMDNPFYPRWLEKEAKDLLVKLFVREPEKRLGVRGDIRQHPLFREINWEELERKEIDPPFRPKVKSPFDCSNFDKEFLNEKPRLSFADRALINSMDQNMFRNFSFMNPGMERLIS
Sequence of PKC delta kinase (Q05655 whole entry): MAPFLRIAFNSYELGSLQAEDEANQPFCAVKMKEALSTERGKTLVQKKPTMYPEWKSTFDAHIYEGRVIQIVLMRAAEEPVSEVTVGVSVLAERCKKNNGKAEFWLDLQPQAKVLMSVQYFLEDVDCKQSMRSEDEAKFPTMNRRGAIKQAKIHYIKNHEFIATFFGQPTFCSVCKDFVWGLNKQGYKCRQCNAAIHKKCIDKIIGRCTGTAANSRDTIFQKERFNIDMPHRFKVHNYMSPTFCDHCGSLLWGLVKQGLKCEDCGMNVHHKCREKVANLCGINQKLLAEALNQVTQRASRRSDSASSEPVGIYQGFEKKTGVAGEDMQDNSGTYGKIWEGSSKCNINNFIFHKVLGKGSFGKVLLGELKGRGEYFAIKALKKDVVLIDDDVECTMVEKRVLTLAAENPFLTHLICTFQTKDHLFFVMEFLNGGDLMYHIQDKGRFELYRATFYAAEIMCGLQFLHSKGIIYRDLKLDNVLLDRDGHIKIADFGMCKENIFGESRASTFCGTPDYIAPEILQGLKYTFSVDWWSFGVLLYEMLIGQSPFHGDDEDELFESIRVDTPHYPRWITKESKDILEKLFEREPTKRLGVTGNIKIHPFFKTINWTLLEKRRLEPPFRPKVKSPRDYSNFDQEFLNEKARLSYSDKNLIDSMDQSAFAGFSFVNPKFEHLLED

Compound	pKi (PKC theta kinase)	pKi (PKC delta kinase; read-out: Ki PKC delta)	pKi (PKC alpha kinase)	pKi (PKC delta kinase; Ki PKC delta)
Cc1cc(N2CCNCC2)nc(-c2n[nH]c3ncccc23)c1Cl [Compound 95]	> 5.55	> 5.55	< 5.90	
CC(C)[C@H]1CN(c2ccc(C(F)(F)F)c(-c3n[nH]c4ncccc34)n2)CCN1 [Compound 98]	> 6.30	< 5.70	< 5.90	
CC(C)C[C@H]1CN(c2cccc(-c3n[nH]c4ncccc34)n2)C[C@H](C)N1 [Compound 10]	> 5.55	< 5.70	< 5.90	
CCC[C@H]1CN(c2cccc(-c3n[nH]c4ncccc34)n2)CCCN1 [Compound 228]	> 7.30	> 6.30	> 6.30	
N[C@@H]1CCN(c2cccc(-c3n[nH]c4ncccc34)n2)C1 [Compound 33]	> 6.30	> 5.55	< 5.90	
COC(C)(C)CC1CN(c2ccc(C(F)(F)F)c(-c3n[nH]c4ncccc34)n2)CCN1 (stereo not drawn) [Compound 100]	> 6.30	< 5.90	< 5.90	
CNC(=O)CC1CN(c2ccc(C(F)(F)F)c(-c3n[nH]c4ncccc34)n2)CCN1 (stereo not drawn) [Compound 210]	> 6.30	< 5.90	< 5.90	
C=C(F)c1cc(-c2n[nH]c3ncccc23)nc(N2CCN[C@@H](CC(C)C)C2)c1 [Compound 55]	> 7.30	> 5.55	< 5.90	
CCCC1CN(c2ccc(Cl)c(-c3n[nH]c4ncccc34)n2)CCN1 (stereo not drawn) [Compound 123]	> 7.30	> 5.55	< 5.90	
CC(C)CC1CN(c2ccc(C(F)(F)F)c(-c3n[nH]c4ncccc34)n2)CC(CF)N1 (stereo not drawn) [Compound 217]	< 6.15	< 5.90	< 5.90	
CC(C)(C)[C@H]1CN(c2cccc(-c3n[nH]c4ncccc34)n2)CCN1 [Compound 76]	> 7.30	> 6.30	> 5.55	
NCC1CCCN(c2cccc(-c3n[nH]c4ncccc34)n2)C1 (stereo not drawn) [Compound 74]	> 6.30	> 6.30	> 5.55	
CC(C)C[C@H]1CN(c2cncc(-c3n[nH]c4ncccc34)n2)CCN1 [Compound 39, (S)-3-(6-(3-isobutylpiperazin-1-yl)pyrazin-2-yl)-1H-pyrazolo[3,4-b]pyridine]	> 7.30	> 6.30	> 5.55	
CC(C)C[C@@H]1CN(c2cccc(-c3n[nH]c4ncc(F)cc34)n2)CCN1 [Compound 46]	> 7.30	> 6.30	> 5.55	
Fc1ccc(N2CCNCC2)nc1-c1n[nH]c2ncccc12 [Compound 88]	> 6.30		< 5.90	> 5.55
CC(C)C[C@H]1CN(c2cccc(-c3n[nH]c4ncc(Cl)cc34)n2)CCN1 [Compound 38]	> 7.30	> 6.30	> 6.30	
Cc1ccccc1C1CN(c2ccc(C(F)(F)F)c(-c3n[nH]c4ncccc34)n2)CCN1 (stereo not drawn) [Compound 124]	> 6.30	< 5.90	< 5.90	
Clc1ccc(N2CCNCC2)nc1-c1n[nH]c2ncccc12 [Compound 48]	> 6.30	> 5.55	> 5.55	
C=Cc1ccc(N2CCN[C@@H](CC(C)C)C2)nc1-c1n[nH]c2ncccc12 [Compound 51]	< 6.15	< 5.70	< 5.90	
NCC1CCN(c2cccc(-c3n[nH]c4ncccc34)n2)CC1 [Compound 64]	> 6.30	> 5.55	< 5.90	
FC(F)(F)c1ccc(N2CCNCC2)nc1-c1n[nH]c2ncccc12 [Compound 8]	> 6.30	> 5.55	< 5.90	
CC(C)(C)C(N)C1CCCN(c2ccc(F)c(-c3n[nH]c4ncccc34)n2)C1 (stereo not drawn) [Compound 307]	> 9.00	> 7.30	> 6.30	

More lines, main results first:

pKi (PKC theta kinase)	pKi (PKC delta kinase; read-out: Ki PKC delta)	pKi (PKC alpha kinase)	Compound	pKi (PKC delta kinase; Ki PKC delta)
> 6.30	< 5.90	< 5.90	CC(C)(C(N)C1CCCN(c2ccc(F)c(-c3n[nH]c4ncccc34)n2)C1)C(F)(F)F (stereo not drawn) [Compound 394]	
> 7.30	> 6.30	< 5.90	CC(C)C(O)(CF)C1CN(c2ccc(F)c(-c3n[nH]c4ncccc34)n2)CCN1 (stereo not drawn) [Compound 264]	
< 6.15	< 5.90	< 5.90	NC(=O)C1CCCN(c2ccc(F)c(-c3n[nH]c4ncccc34)n2)C1 (stereo not drawn) [Compound 302]	
> 9.00	> 7.30	> 5.55	CC(C)C(C)(O)C1CN(c2nc(-c3n[nH]c4ncccc34)ccc2F)CCN1 (stereo not drawn) [Compound 329]	
> 9.00	> 7.30	> 5.55	CC(C)(C(N)C1CCCN(c2ccc(F)c(-c3n[nH]c4ncccc34)n2)C1)C(F)(F)F (stereo not drawn) [Compound 393]	
> 6.30	< 5.90	< 5.90	CC(C)CC1CN(c2ccc(C(F)(F)F)c(-c3n[nH]c4ncccc34)n2)CCC1CC#N (stereo not drawn) [Compound 450]	
> 6.30	< 5.90	< 5.90	CC(C)C(C)(O)C1CN(c2nc(-c3n[nH]c4ncccc34)c(F)cc2F)CCN1 (stereo not drawn) [Compound 444]	
< 6.15	< 5.90	< 5.90	NC[C@@H]1CCN(c2ccc(C(F)(F)F)c(-c3n[nH]c4ncccc34)n2)C1 [Compound 353]	
> 7.30	< 5.90	< 5.90	CC(C)CC1CN(c2ccc(F)c(-c3n[nH]c4ncccc34)n2)CCC1CC#N (stereo not drawn) [Compound 452]	
> 7.30	> 5.55	< 5.90	CC(C)C[C@@H]1C[C@H](N)CN(c2ccc(F)c(-c3n[nH]c4ncccc34)n2)C1 [Compound 366]	
< 6.15	< 5.90	< 5.90	OCCC1CCCCN1c1ccc(C(F)(F)F)c(-c2n[nH]c3ncccc23)n1 (stereo not drawn) [Compound 257]	
< 6.15	< 5.90	< 5.90	CC(C)CC1(C#N)CN(c2ccc(C(F)(F)F)c(-c3n[nH]c4ncccc34)n2)C1 [Compound 429]	
> 6.30	< 5.90	< 5.90	CC(C)C[C@H]1CN(c2ccc(F)c(-c3n[nH]c4ncccc34)n2)CC[C@@H]1O [Compound 325]	
> 5.55	< 5.90	< 5.90	N#CCCC1CN(c2ccc(C(F)(F)F)c(-c3n[nH]c4ncccc34)n2)CCC1O (stereo not drawn) [Compound 459]	
> 7.30	> 6.30	< 5.90	NC1CCN(c2cc(CO)cc(-c3n[nH]c4ncccc34)n2)CC1 [Compound 441]	
> 6.30	< 5.90	< 5.90	NCC1CCN(c2ccc(F)c(-c3n[nH]c4ncccc34)n2)C1 (stereo not drawn) [Compound 289]	
> 6.30	> 5.55	< 5.90	CCC(N)C1(C(F)(F)F)CCN(c2ccc(F)c(-c3n[nH]c4ncccc34)n2)C1 (stereo not drawn) [Compound 448]	
> 6.30	< 5.90	< 5.90	CCC(C)(C)C(N)C1CCCN(c2ccc(F)c(-c3n[nH]c4ncccc34)n2)C1 (stereo not drawn) [Compound 379]	
< 6.15	< 5.90	< 5.90	NCCC1CCCN(c2ccc(F)c(-c3n[nH]c4ncccc34)n2)C1 (stereo not drawn) [Compound 304]	
> 6.30	< 5.90	< 5.90	CC1(N)CCCN(c2ccc(F)c(-c3n[nH]c4ncccc34)n2)C1 (stereo not drawn) [Compound 316]	
> 6.30	> 5.55	< 5.90	CCC(N)(CC)C1CCCN(c2ccc(F)c(-c3n[nH]c4ncccc34)n2)C1 (stereo not drawn) [Compound 377]	
> 7.30	> 6.30	> 5.55	CC(C)C(O)C1CN(c2ccc(F)c(-c3n[nH]c4ncccc34)n2)CCN1 (stereo not drawn) [Compound 252]	
> 6.30	< 5.90	< 5.90	NC1CCCN(c2ccc(F)c(-c3n[nH]c4ncccc34)n2)C1 (stereo not drawn) [Compound 294]	
> 7.30	> 5.55	< 5.90	CC(F)(F)C(C)(O)C1CN(c2ccc(F)c(-c3n[nH]c4ncccc34)n2)CCN1 (stereo not drawn) [Compound 282]	
< 6.15	< 5.90	< 5.90	NC[C@@H]1CCCN1c1ccc(C(F)(F)F)c(-c2n[nH]c3ncccc23)n1 [Compound 356]	
> 6.30	> 6.30	< 5.90	CC1(C)CN(c2ccc(C(F)(F)F)c(-c3n[nH]c4ncccc34)n2)CCC1N (stereo not drawn) [Compound 428]	
